Measurements reported in patent US10881637B2 (priority 2015, dated 2021).
Where two headings read alike, the source gives them in different places.

What was measured:
[1] = tested on: 50 other receptors, transporters and ion channels including mu- and delta-opioid receptors; details: cited from earlier work
D2 receptor = D2 receptor (Homo sapiens, UniProt P14416); details: cited from earlier work
5HTP2A receptors = 5HTP2A receptors (Homo sapiens, UniProt P28223); details: cited from earlier work
[2] = cited from earlier work
[3] = tested on: subject with bipolar disorder; test: Salvia divinorum by combustion and inhalation in one subject with bipolar disorder (Example 1); type: in vivo, human; details: for mania on traditional antidepressants: same subject, very small, sub-therapeutic doses
From the text: This method was repeated approximately 20 times with consistent results.

5HTP2A receptors, sequence (P28223 whole entry): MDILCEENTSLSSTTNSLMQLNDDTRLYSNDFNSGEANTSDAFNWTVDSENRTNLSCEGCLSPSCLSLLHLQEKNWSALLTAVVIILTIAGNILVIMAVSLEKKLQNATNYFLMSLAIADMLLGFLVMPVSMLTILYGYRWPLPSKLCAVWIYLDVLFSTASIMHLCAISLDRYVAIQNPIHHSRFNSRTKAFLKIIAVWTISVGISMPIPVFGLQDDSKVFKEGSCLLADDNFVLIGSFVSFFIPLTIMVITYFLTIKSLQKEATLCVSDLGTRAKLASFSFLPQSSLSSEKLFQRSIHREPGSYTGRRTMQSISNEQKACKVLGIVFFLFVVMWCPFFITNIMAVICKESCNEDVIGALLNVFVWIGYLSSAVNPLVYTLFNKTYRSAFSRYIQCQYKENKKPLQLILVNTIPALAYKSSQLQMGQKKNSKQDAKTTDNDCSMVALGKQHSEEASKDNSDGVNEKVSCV
D2 receptor, sequence (P14416 whole entry): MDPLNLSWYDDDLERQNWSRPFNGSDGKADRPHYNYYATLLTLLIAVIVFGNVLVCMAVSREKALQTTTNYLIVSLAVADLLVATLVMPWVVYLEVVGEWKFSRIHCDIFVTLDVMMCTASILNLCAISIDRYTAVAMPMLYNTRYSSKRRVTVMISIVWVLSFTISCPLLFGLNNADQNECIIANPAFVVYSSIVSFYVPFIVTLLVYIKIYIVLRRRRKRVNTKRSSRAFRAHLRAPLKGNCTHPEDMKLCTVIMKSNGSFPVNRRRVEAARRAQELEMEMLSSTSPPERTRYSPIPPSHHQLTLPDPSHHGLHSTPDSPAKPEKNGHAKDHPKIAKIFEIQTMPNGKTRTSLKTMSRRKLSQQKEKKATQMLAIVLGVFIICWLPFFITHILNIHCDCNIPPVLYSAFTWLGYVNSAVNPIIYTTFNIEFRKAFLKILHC

## COC(=O)[C@@H]1C[C@H](OC(C)=O)C(=O)[C@H]2[C@@]1(C)CC[C@H]1C(=O)O[C@H](c3ccoc3)C[C@]21C [salvinorin A]
[1]
  effect on a battery of 50 other receptors, transporters and ion channels: no significant effect
D2 receptor
  D2 receptor activity: partial agonist
5HTP2A receptors
  effect on 5HTP2A receptors: no significant effect
5HTP2A receptors; listed as Salvinorin A
  effect on 5HTP2A receptors: no substantial effect
[2]; encapsulated, oral
  activity when administered orally: inactive
[2]; sublingual
  absorption on sublingual administration: inconsistent results or no absorption at all

## CNC1(c2ccccc2Cl)CCCCC1=O (centres unmarked) [ketamine]
[3]; co-administered with inhaled Salvia divinorum, cannabis by combustion and inhalation and/or ketamine hydrochloride about 30 to about 75 mg intranasal
  effect on the anxiolytic and antidepressant effects of Salvia divinorum alone: appeared to potentiate

## CN[C@H]1CC[C@@H](c2ccc(Cl)c(Cl)c2)c2ccccc21 [sertraline]
[3]
  mania on traditional antidepressants: experienced mania

## CN(C)CCCC1(c2ccc(F)cc2)OCc2cc(C#N)ccc21 (centres unmarked) [celexa]
[3]
  mania on traditional antidepressants: experienced mania

## O=C1CN=C(c2ccccc2Cl)c2cc([N+](=O)[O-])ccc2N1 [clonazepam]
[3]; clonazepam oral and/or sublingual, about 1.5 mg b.i.d., along with cannabis and/or intranasal ketamine and inhaled Salvia divinorum
  effect on the anxiolytic and antidepressant effects of Salvia divinorum alone: appeared to potentiate
[3]; clonazepam oral and/or sublingual, along with cannabis and/or intranasal ketamine and inhaled Salvia divinorum
  effect on anxiety, tremor or other side effects of Salvia divinorum administration: helped to further alleviate any anxiety, tremor or any other side effect
